The values below come from article PMC5321753, “Enhanced expression of ADCY1 underlies aberrant neuronal signalling and behaviour in a syndromic autism model” (Nature Communications, 2017).

The subject of one assay is ADCY1. In words: ADCY1 protein (western blot) and Adcy1 mRNA (qRT-PCR) in cultured hippocampal neurons after DHPG. It is filed as cell-based, mouse. To be noted: DHPG 100 μM. Here is the method: (§1) Primary hippocampal neurons were cultured as described, and used for the examination of mGluR1/5-mediated signalling and protein synthesis. Neurons were treated with 100 μM DHPG ((RS)-3,5-dihydroxyphenylglycine). Protein level and mRNA level were examined by western blot (for ADCY1, β-actin, p-ERK1/2 and ERK1/2) and quantitative RT-PCR (for Adcy1 and Gapdh mRNA), respectively.
For orientation: Immunoblotting shows a protein as a band on a membrane.

A further assay deals with ERK1/2. In words: ERK1/2 activation in cultured hippocampal neurons after DHPG. It is filed as cell-based, mouse. To be noted: both WT and Fmr1 KO neurons, DHPG 100 μM. As for the experimental part:
as §1

The test system of the next assay is cAMP. Also noted: method as in PMID 9844008. To be noted: lower dose 0.03 mg kg^-1; cited from earlier work.
Assay [1] deals with WT and Fmr1 KO mice. In words: Audiogenic seizures (AGS) induced by 120 dB sound. It is filed as in vivo, mouse. Here is the method: Audiogenic seizures (AGS) were examined with 21- to 24-day-old-mouse (7), as this phenotype is dependent on the age of the mouse and only detected in juvenile Frm1 KO mouse. Mouse was placed in a box (30 cm L × 17 cm W × 12 cm H) with a flat plastic lid. A personal alarm (Streetwise, item # SWPDAL) was taped to the lid of the box and wired to a DC power supply to keep the sound amplitude constant. The mouse was allowed to acclimatize to the box for 5 min, following which 120 dB sound was emitted from the alarm for 2 min. The number of mice undergoing seizure activity within the 2-min period was counted. Audiogenic seizures were classified into different stages: wild running, clonic/tonic seizure and death.
(§2) NB001 was dissolved in water to give a 25 mM stock solution. The stock was diluted in saline and IP injected into mice at 1 mg kg^−1 body weight. In all cases, the drug was administered 1 h before testing. Control mice were treated similarly but injected with saline.
(§3) To inhibit phosphodiesterase (PDE), rolipram was dissolved in 10% kolliphore and IP injected into mice at 0.5 or 0.03 mg kg^−1. The use of the higher dose (that is, 0.5 mg kg^−1) was to ensure sufficient inhibition of PDE[44][45]. […] Rolipram- or vehicle (10% kolliphore)-injected mice were examined with light/dark test and AGS 30 min after drug administration.

In the next assay the test system is fly model of FXS. Also noted: method as in PMID 25568131. To be noted: cited from earlier work.
Assay [2] has as its system Fmr1 KO mice. The arrangement: method as in PMID 25568131. To be noted: cited from earlier work.
Assay [3] has as its system WT and Fmr1 KO mice. As to the kind of experiment: Light/dark test. It is filed as in vivo, mouse. As for the experimental part:
Light/dark test was examined as described in our previous study. Light/dark test was performed using 3-month (+/−10 days) old mouse, which was first placed in the dark half of the chamber (Coulbourn Instruments). After 1 min of habituation, the trap door was opened and the mouse was allowed to move freely between the two chambers for 5 min. The time spent in each chamber and the number of entries into the lit side were recorded.
as §2, §3

Assay [4] concerns Fmr1 KO mice. Also noted: method as in PMID 27445731. To be noted: cited from earlier work.
Setting [5] is: Fmr1 KO mice, rolipram 0.03 mg per kg, 30 min before 120 dB stimulation.
The mark [6] stands for this setting: Fmr1 KO mice, rolipram 0.5 mg kg^-1 IP, 30 min before testing, 120 dB.
Setting [7] is: Fmr1 KO mice, rolipram at 0.5 or 0.03 mg kg^-1, systemic.
[8] abbreviates: WT mice, rolipram 0.03 mg per kg, 30 min before 120 dB stimulation.
[9] abbreviates: WT mice, rolipram 0.5 mg kg^-1 IP, 30 min before testing, 120 dB.

The structures appear in SMILES notation.

Regarding `NC(C(=O)O)c1cc(O)cc(O)c1` (racemic) [DHPG, (RS)-3,5-dihydroxyphenylglycine], the “ADCY1 protein level in Fmr1 KO neurons” value in the assay with ADCY1 (cultured Fmr1 KO hippocampal neurons) was “no DHPG-triggered increase”. For the same molecule, the “Adcy1 mRNA levels” value with ADCY1 (cultured WT and Fmr1 KO hippocampal neurons) is listed as “did not alter”. For the same molecule, in the assay on ADCY1 (cultured WT hippocampal neurons), the “ADCY1 protein level in WT neurons” value is reported as “up-regulation”. The “downstream intracellular signalling target ERK1/2” value in the assay with ERK1/2 is recorded as “activates”.

Take `COc1ccc(C2CNC(=O)C2)cc1OC1CCCC1` (stereo not drawn) [rolipram]: the cAMP changes entry with cAMP is reported as “not sufficient to cause cAMP changes”. For the same molecule, the “% Clonic/tonic seizure” value came out at 35.7% in the assay on WT and Fmr1 KO mice [1] (setting [5]); 46.7% in the assay on WT and Fmr1 KO mice [1] (setting [6]); 0% with WT and Fmr1 KO mice [1] (setting [8]); 0% in the assay with WT and Fmr1 KO mice [1] (setting [9]). Moreover, the “% Death” value was determined as 14.3% in the assay on WT and Fmr1 KO mice [1] (setting [5]); 13.3% in the assay with WT and Fmr1 KO mice [1] (setting [6]); 0% in the assay on WT and Fmr1 KO mice [1] (setting [8]); 0% in the assay with WT and Fmr1 KO mice [1] (setting [9]). For the same molecule, the “% Wild running” value in the assay on WT and Fmr1 KO mice [1] (setting [5]) is given as 50%; in the assay on WT and Fmr1 KO mice [1] (setting [6]), 60%; in the assay on WT and Fmr1 KO mice [1] (setting [8]), 13.3%; in the assay on WT and Fmr1 KO mice [1] (setting [9]), 25%. For the same molecule, the AGS entry in the assay with WT and Fmr1 KO mice [1] (setting [7]) was “did not correct”. Further, in the assay with fly model of FXS, the “learning and memory in the fly model of FXS” value is recorded as “improved”. In the assay on Fmr1 KO mice [2], the “exaggerated mGluR1/5-mediated long-term synaptic depression phenotype” value is listed as “rescued”. Besides, the “abnormal behaviour in light/dark test” value with WT and Fmr1 KO mice [3] (setting [7]) is given as “did not correct”. In addition, the “behavioral changes in light/dark test (treatment effect)” value in the assay on WT and Fmr1 KO mice [3] (WT or Fmr1 KO mice, rolipram 0.03 mg per kg i.p., 30 min after injection) is recorded as “n.s”. The “behavioural changes in light/dark test (drug effect)” value in the assay with WT and Fmr1 KO mice [3] (WT or Fmr1 KO mice, rolipram 0.5 mg kg^-1 i.p., 30 min after injection) was “does not cause significant behavioural changes”. The “signalling abnormalities in the hippocampus” value with Fmr1 KO mice [4] is recorded as “failed to correct”.
